Data on 1 molecule can be found in US11946028B2, “Fibrosis model on a chip” (The Trustees of the University of Pennsylvania, priority 2015, dated 2024).

This assay deals with human lung fibroblasts. Put plainly: Serum-induced fibrosis in biomimetic five-layer lung fibrosis model. It counts as cell-based. Conditions: 2 μM PP2 added to medium 24 hours after assembly, maintained for the study; 0.2% serum in the model; FIG. 20. From the text: The first and second channel slabs and the chamber slab of the model were formed using soft lithography techniques, in which the PDMS mixture was poured over the mold, and the slabs were allowed to cure. The microchannels were etched into each of the channel slabs, with the dimensions of 10 mm×1 mm×0.15 mm (length×width×height). The chamber was etched into the chamber slab, with the dimensions of 6 mm×3 mm×1 mm (length×width×height). See FIG. 9 for a picture of the five-layer model and FIG. 2A-2B for a schematic of the five-layer model.
Next, the cellular physiology of the cell-lined fluidic channels with the gel layer of the five-layer model was examined (FIG. 11). In this instance, the upper channel contained human lung endothelial cells cultured with commercially available medium from the supplying vendor of the cells. The lower channel contained small airway epithelial cells with similar specific medium, both from same vendor. The gel was created by adding collagen to physiological aqueous buffer at a concentration of 2 mg/ml and kept at 4° C. Human lung fibroblasts (100 K cells/ml) were added to the gel during the liquid phase. The side of the membranes facing the chamber slab were treated with sulfo-sanpah to promote collagen/ECM anchorage. The lower channel slab, lower membrane, and chamber slab were stacked. The gel was then pipetted into the chamber. […]

In the case of `CC(C)(C)n1nc(-c2ccc(Cl)cc2)c2c(N)ncnc21` [PP2], the “effect on serum-induced fibrosis” value was “reduced fibrosis”.
